According to US20140309295A1, “ANTIEPILEPTIC, HYPOCHOLESTEROLEMIC AND NEUROPROTECTIVE COMPOUND” (NEURON BIOPHARMA, S.A., priority 2009, published 2014):

Columns and labels:
[1] = system: human neuroblastoma SK-N-MC cells; assay: Protection against neuronal death induced by oxidative stress (xanthine/xanthine oxidase), WST-1; assay type: cell-based
Protocol: (§1) The assay was performed on human neuroblastoma SK-N-MC cells in culture from the American Type Culture Collection (ATCC), in all cases strict rules of sterility were followed and the manipulation was performed in class II biological safety cabinets following European standard EN 12469. The cells were maintained in the following culture medium: Minimum Essential Medium Eagle (MEM) supplemented with 1 mM sodium pyruvate, 2 mM L-glutamine, 0.1 mM non-essential amino acids, 0.05 mg/ml gentamicin and 10% fetal bovine serum.
The inhibition caused by compound NST0037 of cell death caused by treatment with xanthine/xanthine oxidase which generates oxidative damage (causes free radicals such as hydrogen peroxide, superoxide anion, hydroxyl radical), which triggers cell death, was analyzed. These cells, not exceeding 15 passages, were seeded on 96-well plates treated for adherent cells with a cell concentration of 5×10^4 cells/well; 3 wells of the plate were seeded for each condition of the assay.
After 24 hours of cell incubation at 37° C. and 5% CO2, the cell treatments were performed with 100 μl of total volume for the following conditions: • Control: culture medium (medium) • Xanthine/xanthine oxidase (XXO): medium plus 10 μM xanthine/60 mU/mL xanthine oxidase, causing the death of 50% of the cells. • XXO plus NST0037: medium plus XXO (10 μM/60 mU/mL) plus NST0037 at 1, 4, 10, 20, 40 or 100 μM.
The cells were incubated (at 37° C. and 5% CO2) with these treatments for 22 hours, after which time the WST-1 reagent (Roche) was added. The Test WST-1 is based on the measurement of metabolic activity. Cell damage causes the loss of the ability of cells to obtain the energy necessary to maintain their metabolic functions and cell growth, therefore the metabolically active (live) cells reduce tetrazolium salt to formazan by means of the succinate-tetrazolium reductase system (of the mitochondrial respiratory chain). The formazan which is formed can be detected colorimetrically since it has an absorbance of 440 nm. The reading was taken in a plate reader at 440 nm 2 hours after adding the reagent.
The assay was performed on human neuroblastoma SK-N-MC cells in culture from the American Type Culture Collection (ATCC), in all cases strict rules of sterility were followed and the manipulation was performed in class II biological safety cabinets following European standard EN 12469. […]
The effect of mevalonate on the protection caused by compound NST0037 against cell death caused by the treatment with xanthine/xanthine oxidase generating oxidative damage and cell death was analyzed. […]

[2] = system: seladin-1/DHCR24 gene; assay: seladin-1/DHCR24 gene expression in SK-N-MC cells (real-time quantitative RT-PCR); assay type: cell-based, human; conditions: 1, 4, 10 or 40 μM, 24 hours
Protocol: as §1
The expression of the seladin-1/DHCR24 gene (NCBI Reference Sequence: NM_014762.3) was analyzed by means of real-time quantitative RT-PCR in comparison with memantine (a drug normally used to treat Alzheimer's disease). […] The total RNA was extracted by means of the High Pure RNA Isolation kit (Roche) and the amount and quality of the RNA were analyzed by means of spectrophotometry (Infinite 200 with NanoQuant, Tecan) and viewing of the 18S and 28S bands by means of electrophoresis. The RT-PCR was performed by means of two steps, first, the mRNA was changed to cDNA using the RNA to cDNA kit (Applied Biosystem) and the gene expression was subsequently analyzed by means of TaqMan probes using the validated probes Hs00207388_m1 for seladin-1/DHCR24 and Hs99999901_s1 for 18S (used to normalize the results) in the 7500 Fast Real-Time PCR System equipment (Applied Biosystem). […]

CCC(CC)C(=O)O[C@H]1C[C@@H](C)C=C2C=C[C@H](C)[C@H](CC[C@@H]3C[C@@H](O)CC(=O)O3)[C@H]21 [NST0037, (1S,2S,6R,8S,8aR)-1,2,6,7,8,8a-hexahydro-3,7-dimethyl-8-[2-[(2R,4R)-tetrahydro-4-hydroxy-6-oxo-2H-pyran-2-yl]ethyl]-1-naphthalenyl-2-ethyl-butyrate]
maximum protection against death caused by XXO ([1]; 20 μM NST0037, 10 μM xanthine/60 mU/mL xanthine oxidase, 22 h): 78%
protection against death caused by XXO ([1]; 40 μM NST0037 (Example 14)): 57%
seladin-1/DHCR24 gene expression [2]: increase of seladin-1/DHCR24 gene expression
